This is an account of results in patent US7125995B2, “Substituted amidoalkyl uracils and their use as inhibitors of the poly(adp-ribose) synthetase (PARS)” (Bayer Aktiengesellschaft, priority 2000, dated 2006).

Assay [1] concerns MHEC5-T cells. In words: Cell protection assay (in vitro), H2O2-induced cell death, Alamar blue. In kind it is cell-based. Particulars: 3 mM H2O2, 5 hours. The method, then: In accordance with a method described by Bowes [Bowes et al., Br. J. Pharmacol., 124, 1760–1766 (1998)], the ability of PARS inhibitors to protect cells against cell death induced by incubation with H2O2 is examined in a cell protection assay. Incubation of endothelial cells with H2O2 results in the generation of DNA strand breaks which in turn activate PARS, resulting in a drastic energy decrease in the cells and in cell death. Living cells are quantified by a fluorimetric redox indicator (Alamar blue), which is converted in the electron transport system of the mitochondria.
Specifically, 7500 MHEC5-T cells/well (DSM ACC 336; German collection of microorganisms and cell cultures) are sown in 4 replications on a 96-well plate. After 24 hours, the cells are incubated with 3 mM aqueous H2O2 solution and differing concentrations of the substances in the presence of 6% by volume of Alamar blue solution in the medium at 37° C. for 5 hours. The reference substance used is 10 μM 1,5-dihydroxyisoquinoline (DHCH) solution. After the incubation, the fluorescence is measured at an excitation wavelength of 530–560 nm and an emission wavelength of 590 nm. The percentage for the cell protection is calculated as the difference between the living cells treated only with H2O2 and the cells treated with H2O2 and PARS inhibitors. The internal standard used is 10 μM DHCH, which is defined as 100% protection. The results obtained for the other substances are compared to this value.
The EC50 values indicate the concentration at which 50% of maximum cell protection is reached, maximum protection by 10 μM DHCH being defined as 100%.

For assay [2], the target named is T1, human PARS enzyme (Homo sapiens, UniProt P09874).
T1 construct: made in house; host or cells: baculovirus expression system (Bac-To-Bac, Life Technologies)
T1 sequence (P09874 whole entry): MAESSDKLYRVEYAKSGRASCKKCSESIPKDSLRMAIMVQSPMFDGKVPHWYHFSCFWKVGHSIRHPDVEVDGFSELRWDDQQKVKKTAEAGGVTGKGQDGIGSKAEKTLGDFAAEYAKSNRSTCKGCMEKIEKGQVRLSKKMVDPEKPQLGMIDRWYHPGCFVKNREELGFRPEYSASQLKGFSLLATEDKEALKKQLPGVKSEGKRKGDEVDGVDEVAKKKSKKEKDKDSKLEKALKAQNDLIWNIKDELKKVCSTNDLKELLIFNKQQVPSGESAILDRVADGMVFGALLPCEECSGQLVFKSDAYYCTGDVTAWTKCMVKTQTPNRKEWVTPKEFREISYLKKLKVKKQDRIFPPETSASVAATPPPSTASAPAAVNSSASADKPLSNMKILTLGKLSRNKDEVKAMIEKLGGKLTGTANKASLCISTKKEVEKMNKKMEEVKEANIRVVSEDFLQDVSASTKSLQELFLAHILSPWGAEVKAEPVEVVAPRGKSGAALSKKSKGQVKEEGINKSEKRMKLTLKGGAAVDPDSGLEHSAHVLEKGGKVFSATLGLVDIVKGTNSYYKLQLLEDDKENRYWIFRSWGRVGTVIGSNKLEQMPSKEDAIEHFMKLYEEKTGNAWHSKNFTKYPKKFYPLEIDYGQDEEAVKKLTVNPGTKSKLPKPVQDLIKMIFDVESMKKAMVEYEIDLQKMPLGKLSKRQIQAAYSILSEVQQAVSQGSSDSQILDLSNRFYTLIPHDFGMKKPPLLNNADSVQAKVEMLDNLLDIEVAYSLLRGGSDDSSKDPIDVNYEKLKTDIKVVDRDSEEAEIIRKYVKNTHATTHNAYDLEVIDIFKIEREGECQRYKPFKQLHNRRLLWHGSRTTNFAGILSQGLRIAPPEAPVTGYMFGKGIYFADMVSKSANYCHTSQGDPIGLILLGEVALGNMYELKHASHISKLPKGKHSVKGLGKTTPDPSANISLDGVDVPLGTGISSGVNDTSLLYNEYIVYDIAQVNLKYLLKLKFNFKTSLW
In words: PARS inhibition test (in vitro). In kind it is biochemical. Particulars: recombinant human PARS, [14C]-NAD+, 10 min room temperature. The method, then: To this end, recombinantly expressed (Bac-To-Bac, Baculo virus expression system; Instruction Manual; Life Technologies) human PARS enzyme is activated in a buffer which contains radioactively labelled [^14C]—NAD^+. The poly(ADP-ribose) units that are synthesized are precipitated using trichloroacetic acid, and the proportion of labelled protein is determined by scintillation measurements. Incubation of PARS with inhibitors leads to a decrease in the proportion of labelled protein and thus to a reduced radioactivity.
• Buffer: 100 mM 2-amino-2-hydroxymethyl-1,3-propanediol (tris)-HCl, pH 7.4 • 10 mM MgCl2 • 1 mM dithiothreitol (DTT) • Tris-HCl and MgCl2 are dissolved in water, DTT is added from an aqueous 100 mM stock solution (stored at −20° C.) and the pH is adjusted with concentrated HCl to 7.4. • DNA: 1 mg/ml of calf thymus DNA • 1 mg/ml of calf thymus DNA (from Sigma) is dissolved in water and sonicated to induce strand breaks. 500 μl aliquots were stored at −20° C. • Histones: 10 mg/ml of type IIA histones, calf thymus • 10 mg/ml of lyophilized histones (from Sigma) are dissolved in water. • 500 μl aliquots are stored at −20° C. • NAD^+ Mix: 2 mM NAD^+ in buffer, • NAD^+ (from Sigma) solutions are prepared freshly before each test. • In each case 3 μl of labelled [^14C]—NAD^+ (2.8 kBq, from Amersham) are added to 7 μl of cold NAD^+ solution. • Trichloroacetic acid (TCA): TCA is stored at 4° C. as a 10% strength by weight solution. • PARS: Human PARS protein is expressed recombinantly in the baculovirus system (Bac-To-Bac, Baculo virus expression system; Instruction Manual; Life Technologies) and purified. 500 μl aliquots are stored at −80° C. Methods
The compounds to be tested are dissolved in DMSO (dimethyl sulphoxide) at a concentration of 10 mM. The assay is carried out in deep 96-well plates. […] The mixture is incubated at room temperature for 10 min, and 1 ml of ice-cold TCA solution is then added, and the precipitated labelled proteins are sucked onto a filter paper (printed filter mat A; from Wallac) using a harvester (from Scatron). The filter is dried, sealed together with a scintillation sheet (Multilex A; from Wallac) and measured in a β counter for 1 min per well.
In addition to the substances described in this application, the known PARS inhibitor 1,5-dihydroxyisoquinoline (DHCH) is tested as reference substance. The results of the test are stated as IC50 values for the inhibition of PARS.

The mark [3] stands for this setting: 37° C., 50% of maximum cell protection, 10 μM DHCH defined as 100%, read-out: Cell protection (in vitro) EC50.

Where two headings read alike, the source gives them in different places.

For orientation: EC50 means the midpoint of the concentration-response curve. Regarding `O=C(CCn1c2c(c(=O)[nH]c1=O)CSCC2)NCC(=O)c1ccc(-c2ccc3c(c2)OCO3)cc1` [Example 12], the EC50 in assay [1] (setting [3]) is 95 nM.
One may read the IC50 as the point on the concentration scale where inhibition reaches its midpoint. Turning to `O=C(CCn1c2c(c(=O)[nH]c1=O)CSCC2)NCC(=O)c1ccc2ccccc2c1` [Example 6], the IC50 in assay [2] is 8.5 nM.
Consider `O=C(CCn1c2c(c(=O)[nH]c1=O)CSCC2)NCC(=O)N1CCN(c2ccccc2)CC1` [Example 30], for which the EC50 in assay [1] (setting [3]) was 100 nM.
On to `O=C(CCn1c2c(c(=O)[nH]c1=O)CSCC2)NCC(=O)c1ccc(-c2cnccn2)cc1` [Example 5, 3-(2,4-Dioxo-3,4,7,8-tetrahydro-2H-thiopyrano [4,3-d]pyrimidin-1(5H)-yl)-N-(2-oxo-2-[4-(2-pyrazinyl)phenyl]ethyl)propanecarboxamide], for which the EC50 in assay [1] (setting [3]) stood at 70 nM.
The same measure, in the same setting: with `O=C(CCn1c2c(c(=O)[nH]c1=O)CCCC2)NCC(=O)N1CCN(c2ccc([N+](=O)[O-])cc2)CC1` [Example 32] the figure was 200 nM.
On to `O=C(CCn1c2c(c(=O)[nH]c1=O)CCCC2)NCC(=O)c1ccc(-c2ccncc2)cc1` [Example 7], for which the EC50 in assay [1] (setting [3]) stood at 90 nM. The IC50 in assay [2] stood at 12 nM.
`O=C(CCn1c2c(c(=O)[nH]c1=O)CCCC2)NCC(=O)N1CCN(c2ccccc2C(F)(F)F)CC1` [Example 54]: the IC50 in assay [2] stood at 80 nM.
With `O=C(CCn1c2c(c(=O)[nH]c1=O)CCCC2)NCC(=O)N1CCN(c2ncc(F)cn2)CC1` [Example 40], the EC50 in assay [1] (setting [3]) worked out at 90 nM.
With `O=C(CCn1c2c(c(=O)[nH]c1=O)CSCC2)NCC(=O)N1CCN(c2ncc(Br)cn2)CC1` [Example 24], the EC50 in assay [1] (setting [3]) worked out at 20 nM.
For `Oc1cccc2c(O)nccc12` [DHCH, 1,5-dihydroxyisoquinoline, reference compound], in assay [1] (reference substance, read-out: Cell protection EC50 value), the EC50 is 2000 nM.
Turning to `Cc1csc2c(N3CCN(C(=O)CNC(=O)CCn4c5c(c(=O)[nH]c4=O)CSCC5)CC3)ncnc12` [Example 15], the EC50 in assay [1] (setting [3]) worked out at 50 nM. For the same compound, in assay [2], the IC50 amounted to 15 nM.
